Assay results: patent US12055553B2, “Method for diagnosing risk for inflammatory disease through glycan profiling” (The Regents of the University of California, priority 2017, dated 2024)

Tests used:
[1] = tested on: Caco-2 cells; type: cell-based; conditions: for change in high mannose type glycans / change in the groups of cell surface glycans presented: treated vs untreated; for change in high mannose type glycans / decrease in fucosylated compounds: lactose 70 mg/L; for decrease in fucosylated compounds: high galactose; for change in the groups of cell surface glycans presented: glucose 25 mM, glutamate 2 mM, glutathione 2 mM; for change in sialylated glycans / change in fucosylated glycans / fucosylation: fucose 25 mM, butyrate 10 mM; for change in fucosylated glycans / fucosylation: acetate, lactate; for change in non-decorated complex/hybrid type N-glycans: galactose; for decrease in sialylated glycans collectively / increase in fucosylated glycans collectively: GlcNAc 25 mM, cell line not given
Experimental: (§1) We examined whether supplementation of free monosacchaides derived from diet changes N-glycosylation outcomes on the intestinal cell-surface at concentrations relevant to physiological conditions. Changes in glycosylation were assessed by globally releasing glycans from membrane proteins extracted from fully differentiated (Caco-2) and partially differentiated (HT-29) intestinal epithelial cells and analyzing the mixture by porous graphitized carbon (PGC)-LC-MS. […] The glycan profile under normal growth conditions was used as a frame of reference with which to compare the glycome at varied environments.
(§2) Human colorectal adenocarcinoma Caco-2 cells derived from a person, were obtained from American Type Culture Collection (ATCC, VA) and grown in Eagle's Minimum Essential Medium (EMEM) supplemented with non-essential amino acids, 2 mM L-glutamine, 10% (v/v) fetal bovine serum (Life Technologies, NY), 1 mM sodium pyruvate, 1.5 g/L sodium bicarbonate, 100 U/mL penicillin, and 100 μg/mL streptomycin. Alternatively, Caco-2 cells were grown in Dulbecco's Modified Eagle's Medium (DMEM) supplemented with 10% (v/v) fetal bovine serum, 100 U/mL penicillin, and 100 μg/mL streptomycin. Human colorectal adenocarcinoma HT-29 cells, derived from a person, were obtained from ATCC and grown in McCoy's 5A medium supplemented with 10% (v/v) fetal bovine serum, 100 U/mL penicillin, and 100 μg/mL streptomycin. Cells were subcultured at 80% confluency and maintained at 37° C. in a humidified incubator with 5% CO=2. All treatments were added to the media after cell differentiation. Caco-2 cells were fully differentiated 14-days post-confluency. HT-29 cells were partially differentiated 4-days post-confluency. After 72 h, cells were collected in biological triplicates by scraping A fixed count of 2×10^6 viable cells was used for each experiment Passage number between experiments was controlled to no higher than P40 and a delta P of no more than 20. High passage cells were scraped after P80. Media was renewed three times a week unless specified. Monolayer integrity and quality of cell borders were evaluated under the microscope routinely during growth and before harvest.
(§3) In brief harvested cells were resuspended in homogenization buffer containing 0.25 M sucrose, 20 mM HEPES-KOH (pH 7.4), and 1:100 protease inhibitor (EMD Millipore, CA). Cell lysis was performed on ice using a probe sonicator (Qsonica, CT) with five alternating and on and off pulses in 5 and 10 s intervals, respectively. Lysates were […] at 2,000×g for 10 min to remove the nuclear fraction and cellular debris. The supernatant was collected and brought to 1 mL with homogenization buffer for ultracentrifugation at 200,000×g for 45 min at 4° C. The pallet was resuspended and repelleted by ultracentrifugation in 0.2 M Na2CO3 (pH 11) followed by water to fragment the endoplasmic reticulum and remove the cytoplasmic fraction, respectively. The resulting membrane faction was isolated and stored at −20° C. until further processing.
(§4) Membrane pellets were resuspended with 100 μL of 100 mM ammonium bicarbonate in 5 mM dithiothreitol and heated for 10 s at 100° C. to thermally denature the proteins. […] After addition of 400 μL of chilled ethanol, samples were placed in −80° C. for 1.5 h and centrifuged for 20 min at 21,130×g to precipitate residual deglycosylated proteins. The supernatant containing the released N-glycans was collected and dried. N-Glycans were purified by solid phase extraction containing a porous graphitized carbon (PGC) matrix. Eluted fractions were dried in vacuo.

[2] = tested on: HT-29 cells; test: Cell surface N-glycan profiling (PGC-LC-MS) of HT-29 after supplementation; type: cell-based, Human; conditions: for change in high mannose type glycans: glutamate 2 mM
Experimental: as §1, §2, §3, §4

[3] = tested on: THP-1 cells; test: Lectin array of THP-1 monocyte cell surface glycan composition after monosaccharide supplementation; type: cell-based; conditions: 3 days
Experimental: THP-1 cells (monocyte cell line) were incubated with different sugars (i.e. monosaccharides) for 3 days. Lectin arrays were used to detect changes in the cell surface glycan composition. Secreted HDL from the cell supernatant (monocytes secrete their own HDL) was isolated and then analyzed to determine the glycan composition.
• ConA (Concanavalin A): binds internal and nonreducing terminal α-D-mannosyl (αMan) and α-D-glucosyl groups (αGIc) • JAC (Jacalin): binds galactose-containing O-glycoproteins (Galβ3GalNac) • SNA (Sambucus nigra): binds sialic acid attached to terminal galactose in α-2,6 and to a lesser degree, α-2,3 linkage (Neu5Acα6Gal/GalNac) • AAL (Aleuria auanda lectin): binds fucose linked (α-1,6) to N-acetylglucosamine or to fucose linked (α-1,3) to N-acetyllactosamine related structures, exposed core (α-1, 6) and outer arm (α-1, 2 or α-1, 3) linked fucose moieties. Sugar Treatments: • L-fucose: Tested 2 doses: 300 umol/L (physiologic) and 100 mmol/L. (Marquardt T, Blood, December 15; 94(12):3976-85, 1999): Named L-Fuc Low and L-Fuc High • Fructose: Tested 2 doses: 27 mmol/L (physiologic) and 100 mmol/L. (Hui H, Pancreas, August 38(6): 706-12, 2009); Named Fruc Low and Fruc High • N-acetylglucosamine (GlcNAc): Tested 1 dose: 100 mmol/L. (Villiger TK, Controlling the time evolution of mAb N-finked glycosylation, Part I: Microbioreactor experiments, Biotechnol Prog, September; 32(5):1123-1134, 2016) • Galactose: The two doses for the galactose treatment in the glycan array experiments were: 150 mmol/L and 75 mmol/L. (Villiger TK, Controlling the time evolution of mAb N-linked glycosylation, Part II: Model-based predictions, Biotechnol Prog, September; 32(5):135-1148, 2016)

[4] = HT-29, 72 h, fructose 50 mM, glutamine 10 mM
[5] = Caco-2, 72 h, Ac5-Sia up to 10 mM, glutamine 10 mM
[6] = high dose (galactose 150 mmol/L, fructose 100 mmol/L, L-fucose 100 mmol/L)
[7] = low dose (galactose 75 mmol/L, fructose 27 mmol/L, L-fucose 300 umol/L)
[8] = single dose (GlcNAc 100 mmol/L) or dose not distinguished

Structure (SMILES): OC[C@H]1O[C@@H](O[C@H]2[C@H](O)[C@@H](O)C(O)O[C@@H]2CO)[C@H](O)[C@@H](O)[C@H]1O (stereo partly shown) [lactose]
- change in high mannose type glycans ([1]; Caco-2, 72 h, glutamine 10 mM): did not cause dramatic changes
- decrease in fucosylated compounds ([1]; Caco-2, 72 h): 20%

Structure (SMILES): N[C@@H](CCC(=O)O)C(=O)O [glutamate]
- change in the groups of cell surface glycans presented ([1]; Caco-2, 72 h): relatively unaffected
- change in high mannose type glycans [2, 4]: unperturbed
- decline in fucosylation with respect to the control ([2]; HT-29, glutamate 2 mM, 72 h): 44.4%

Structure (SMILES): NC(=O)CC[C@H](N)C(=O)O [glutamine, L-glutamine]
- change in high mannose type glycans ([1]; Caco-2, 72 h, glutamine 10 mM): significant increases
- increase in abundance of high mannose type N-glycans ([1]; Caco-2, 72 h, fructose 50 mM, glutamine 10 mM): 507%
- change in sialylated glycans [1, 5]: remarkable constancy
- change in fucosylated glycans / fucosylation ([1]; Caco-2, 72 h, glutamine 10 mM): significant increases
- change in non-decorated complex/hybrid type N-glycans ([1]; Caco-2, 72 h, glutamine 10 mM): significant increases
- fold increase of each of Man 5-Man 9 ([1]; Caco-2, glutamine 10 mM, 72 h): more than 6 fold
- change in fucosylated glycans [2, 4]: significant increases
- change in high mannose type glycans [2, 4]: significant increases
- change in non-decorated complex/hybrid types of glycans ([2]; HT-29, glutamine 10 mM, 72 h): significant increases

Structure (SMILES): C[C@H](O)[C@@H](O)[C@@H](O)[C@H](O)C=O [fucose, L-fucose]
- AAL binding (fucosylated glycans) [3, 6]: decreased
- ConA binding (glucose or mannose-terminated glycans) [3, 6]: decreased
- JAC binding (terminal galactose containing glycans) [3, 6]: decreased
- SNA binding (terminal sialic acid) [3, 6]: increased
- AAL binding (fucosylated glycans) [3, 7]: decreased
- ConA binding (glucose or mannose-terminated glycans) [3, 7]: decreased
- JAC binding (terminal galactose containing glycans) [3, 7]: decreased
- SNA binding (terminal sialic acid) [3, 7]: increased
- change in sialylated glycans [1, 5]: overall decrease
- change in fucosylated glycans / fucosylation ([1]; Caco-2, 72 h, glutamine 10 mM): neither the total levels nor the degree of fucosylation deviated significantly

Structure (SMILES): N[C@@H](CCC(=O)N[C@@H](CS)C(=O)NCC(=O)O)C(=O)O [glutathione]
- change in the groups of cell surface glycans presented ([1]; Caco-2, 72 h): essentially unaltered
- change in the HT-29 glycome / major groups of glycans ([2]; HT-29, 72 h, acetate, lactate 10 mM, glutathione 2 mM): essentially unaltered
- increase in high mannose type glycans ([2]; HT-29, glutathione 2 mM, 72 h): 37.1%

Structure (SMILES): CC(=O)N[C@H]1C(O)O[C@H](CO)[C@H](O)[C@@H]1O (stereo partly shown) [GalNAc, N-acetylgalactosamine]
- decrease in sialylated glycans collectively ([1]; 72 h, GalNAc): 31.9%
- increase in fucosylated glycans collectively ([1]; 72 h, GalNAc): 120%
- increase in abundance of non-decorated complex/hybrid type N-glycans ([1]; Caco-2, 72 h, fructose 50 mM, GalNAc): 234%
- fold increase of Hex3HexNAc4Fuc1 ([1]; GalNAc supplementation, 72 h): 13 fold
- fold increase of Hex3HexNAc5Fuc1 ([1]; GalNAc supplementation, 72 h): 7 fold

Structure (SMILES): CC(=O)N[C@H]1[C@H]([C@H](OC(C)=O)[C@@H](COC(C)=O)OC(C)=O)OC(OC(C)=O)(C(=O)O)C[C@@H]1OC(C)=O (stereo partly shown) [Ac5-Sia, 2,4,7,8,9-penta-O-acetyl N-acetylneuraminic acid]
- change in monofucosylated glycans ([1]; Ac5-Sia up to 10 mM, 72 h): significant increases
- change in sialylated glycans [1, 5]: remained relatively unchanged

Structure (SMILES): CCCC(=O)O [butyrate]
- fold increase of each of Hex3HexNAc4Fuc1, Hex6HexNAc7Fuc1, Hex7HexNAc7Fuc1 ([2]; HT-29, butyrate 10 mM, 72 h): more than 13 fold
- increase in fucosylation ([2]; HT-29, butyrate 10 mM, 72 h): 262%

Structure (SMILES): CC(=O)N[C@H]1C(O)O[C@H](CO)[C@@H](O)[C@@H]1O (stereo partly shown) [GlcNAc, N-acetylglucosamine]
- AAL binding (fucosylated glycans) [3, 8]: decreased
- ConA binding (glucose or mannose-terminated glycans) [3, 8]: decreased
- JAC binding (terminal galactose containing glycans) [3, 8]: decreased
- SNA binding (terminal sialic acid) [3, 8]: did not change
- decrease in sialylated glycans collectively ([1]; 72 h, GalNAc): 53.9%
- increase in fucosylated glycans collectively ([1]; 72 h, GalNAc): 61.2%

Structure (SMILES): CC(=O)O [acetate]
- change in fucosylated glycans / fucosylation ([1]; Caco-2, 72 h, glutamine 10 mM): significant increase
- fold decrease of Hex6HexNAc6Fuc1NeuAc3 ([1]; Caco-2, SCFA 10 mM, 72 h): 4.7 fold
- fold decrease of Hex7HexNAc7Fuc1NeuAc1 ([1]; Caco-2, SCFA 10 mM, 72 h): 2.7 fold
- fold increase of Hex6HexNAc6NeuAc1 ([1]; Caco-2, SCFA 10 mM, 72 h): 8.1 fold

Structure (SMILES): O=C[C@H](O)[C@@H](O)[C@@H](O)[C@H](O)CO [galactose]
- AAL binding (fucosylated glycans) [3, 6]: increased
- ConA binding (glucose or mannose-terminated glycans) [3, 6]: increased
- JAC binding (terminal galactose containing glycans) [3, 6]: increased
- SNA binding (terminal sialic acid) [3, 6]: increased
- JAC binding (terminal galactose containing glycans) [3, 7]: decreased
- SNA binding (terminal sialic acid) [3, 7]: increased
- change in high mannose type glycans ([1]; Caco-2, 72 h, glutamine 10 mM): significant Increases
- change in non-decorated complex/hybrid type N-glycans ([1]; Caco-2, 72 h, glutamine 10 mM): significant Increases
- decrease in fucosylated compounds ([1]; Caco-2, 72 h): 20%
- decrease in relative abundances of fucosylated and sialylated glycans ([1]; Caco-2, galactose-treated, 72 h): 12-28%
- afucosylated glycans as share of all complex/hybrid glycans ([1]; galactose-treated Caco-2 (untreated 15%)): 46%
- asialylated glycans as share of all complex/hybrid glycans ([1]; galactose-treated Caco-2 (untreated 23%)): 58%
